≈ marks a conversion by molar mass, not a printed value.
Columns and labels:
Test in all cases: MIC, microdilution broth method (NCCLS)
Assay type in all cases: cell-based
Details in all cases: 35° C., 16-20 hours
[1] = tested on: H. influenzae ATCC49247
Experimental: (§1) Minimal inhibitory concentration (MIC) has been an indicator of in vitro antibacterial activity widely used in the art. The in vitro antimicrobial activity of the compounds was determined by the microdilution broth method following the test method from the National Committee for Clinical Laboratory Standards (NCCLS). This method is described in the NCCLS Document M7-A4, Vol.17, No.2, “Methods for Dilution Antimicrobial Susceptibility Test for Bacteria that Grow Aerobically—Fourth Edition”, which is incorporated herein by reference.
(§2) In this method two-fold serial dilutions of drug in cation adjusted Mueller-Hinton broth are added to wells in microdilution trays. The test organisms are prepared by adjusting the turbidity of actively growing broth cultures so that the final concentration of test organism after it is added to the wells is approximately 5×10^4 CFU/well.
(§3) Following inoculation of the microdilution trays, the trays are incubated at 35° C. for 16-20 hours and then read. […] The amount of growth in the wells containing the test compound is compared with the amount of growth in the growth-control wells (no test compound) used in each tray. As set forth in Table 1, compounds of the present invention were tested against a variety of Gram positive and Gram negative pathogenic bacteria resulting in a range of activities depending on the organism tested.

[2] = tested on: S. pneumoniae ATCC49619
Experimental: as §1, §2, §3

[3] = tested on: E. faecalis ATCC29212
Experimental: as §1, §2, §3

[4] = tested on: S. aureus ATCC29213
Experimental: as §1, §2, §3

MIC (E: H. influenzae ATCC49247) [1]	MIC (D: S. pneumoniae ATCC49619) [2]	MIC (C: E. faecalis ATCC29212) [3]	MIC (B: S. aureus ATCC29213) [4]	SMILES
0.5 µg/mL (≈ 0.597 µM)	0.03 µg/mL (≈ 0.0358 µM)	0.06 µg/mL (≈ 0.0717 µM)	0.12 µg/mL (≈ 0.143 µM)	CCC1OC(=O)C(C)C(=O)C(C)C(OC2OC(C)CC(N(C)C)C2O)C(C)(OC(=O)OCC=Cc2cccc(-c3ncccn3)c2)CC(C)C(=O)C(C)C2NC(=O)OC12C (centres unmarked) [Compound 15]
	≦0.015 μg/mL	0.06 µg/mL (≈ 0.0717 µM)	0.12 µg/mL (≈ 0.143 µM)	CCC1OC(=O)C(C)C(=O)C(C)C(OC2OC(C)CC(N(C)C)C2O)C(C)(OC(=O)OCC=Cc2ccc(-c3cnccn3)cc2)CC(C)C(=O)C(C)C2NC(=O)OC12C (centres unmarked) [Compound 19]
	≦0.015 μg/mL	0.06 µg/mL (≈ 0.0727 µM)	0.12 µg/mL (≈ 0.145 µM)	CCC1OC(=O)C(C)C(=O)C(C)C(OC2OC(C)CC(N(C)C)C2O)C(C)(OC(=O)OCC=Cc2ccc(-n3cccn3)cc2)CC(C)C(=O)C(C)C2NC(=O)OC12C (centres unmarked) [Compound 21]
0.5 µg/mL (≈ 0.605 µM)	≦0.015 μg/mL	0.06 µg/mL (≈ 0.0726 µM)	0.25 µg/mL (≈ 0.303 µM)	CCC1OC(=O)C(C)C(=O)C(C)C(OC2OC(C)CC(N(C)C)C2O)C(C)(OC(=O)OCC=Cc2ccc(-n3cncn3)cc2)CC(C)C(=O)C(C)C2NC(=O)OC12C (centres unmarked) [Compound 22]
1 µg/mL (≈ 1.21 µM)	≦0.015 μg/mL	0.06 µg/mL (≈ 0.0726 µM)	0.12 µg/mL (≈ 0.145 µM)	CCC1OC(=O)C(C)C(=O)C(C)C(OC2OC(C)CC(N(C)C)C2O)C(C)(OC(=O)OCC=Cc2ccc(-n3ccnn3)cc2)CC(C)C(=O)C(C)C2NC(=O)OC12C (centres unmarked) [Compound 24]
2 µg/mL (≈ 2.38 µM)	0.03 µg/mL (≈ 0.0358 µM)	0.12 µg/mL (≈ 0.143 µM)	0.25 µg/mL (≈ 0.298 µM)	CCC1OC(=O)C(C)C(=O)C(C)C(OC2OC(C)CC(N(C)C)C2O)C(C)(OC(=O)OCC=Cc2ccc(-c3ccn(C)n3)cc2)CC(C)C(=O)C(C)C2NC(=O)OC12C (centres unmarked) [Compound 26]
1 µg/mL (≈ 1.19 µM)	≦0.015 μg/mL	0.06 µg/mL (≈ 0.0712 µM)	0.12 µg/mL (≈ 0.142 µM)	CCC1OC(=O)C(C)C(=O)C(C)C(OC2OC(C)CC(N(C)C)C2O)C(C)(OC(=O)OCC=Cc2ccc(-n3cccn3)cc2F)CC(C)C(=O)C(C)C2NC(=O)OC12C (centres unmarked) [Compound 30]
	0.06 µg/mL (≈ 0.0741 µM)	0.06 µg/mL (≈ 0.0741 µM)	0.12 µg/mL (≈ 0.148 µM)	CCC1OC(=O)C(C)C(=O)C(C)C(OC2OC(C)CC(N(C)C)C2O)C(C)(OC(=O)OCC=Cc2ccc3ncccc3c2)CC(C)C(=O)C(C)C2NC(=O)OC12C (centres unmarked) [Compound 40]
	≦0.015 μg/mL	0.06 µg/mL (≈ 0.074 µM)	0.12 µg/mL (≈ 0.148 µM)	CCC1OC(=O)C(C)C(=O)C(C)C(OC2OC(C)CC(N(C)C)C2O)C(C)(OC(=O)OCC=Cc2ccc3nccnc3c2)CC(C)C(=O)C(C)C2NC(=O)OC12C (centres unmarked) [Compound 44]
	0.12 µg/mL (≈ 0.143 µM)	0.06 µg/mL (≈ 0.0715 µM)	0.12 µg/mL (≈ 0.143 µM)	CCC1OC(=O)C(C)C(=O)C(C)C(OC2OC(C)CC(N(C)C)C2O)C(C)(OC(=O)OCCCc2ccc(-c3ncccn3)cc2)CC(C)C(=O)C(C)C2NC(=O)OC12C (centres unmarked) [Compound 139]
	0.06 µg/mL (≈ 0.0702 µM)	0.12 µg/mL (≈ 0.14 µM)	0.25 µg/mL (≈ 0.292 µM)	CCC1OC(=O)C(C)(F)C(=O)C(C)C(OC2OC(C)CC(N(C)C)C2O)C(C)(OC(=O)OCC=Cc2ccc(-c3ncccn3)cc2)CC(C)C(=O)C(C)C2NC(=O)OC12C (centres unmarked) [Compound 288]
	0.12 µg/mL (≈ 0.143 µM)	0.25 µg/mL (≈ 0.298 µM)	0.5 µg/mL (≈ 0.595 µM)	CCC1OC(=O)C(C)C(=O)C(C)C(OC2OC(C)CC(N(C)C)C2O)C(C)(OC(=O)NOCCc2ccc(-c3cnccn3)cc2)CC(C)C(=O)C(C)C2NC(=O)OC12C (centres unmarked) [Compound 578]
	0.03 µg/mL (≈ 0.0353 µM)	0.12 µg/mL (≈ 0.141 µM)	0.25 µg/mL (≈ 0.294 µM)	CCC1OC(=O)C(C)C(=O)C(C)C(OC2OC(C)CC(N(C)C)C2O)C(C)(OC(=O)NOCC#Cc2ccc(-c3ncccn3)cc2)CC(C)C(=O)C(C)C2NC(=O)OC12C (centres unmarked) [Compound 602]
	0.06 µg/mL (≈ 0.0704 µM)	0.12 µg/mL (≈ 0.141 µM)	0.25 µg/mL (≈ 0.293 µM)	CCC1OC(=O)C(C)C(=O)C(C)C(OC2OC(C)CC(N(C)C)C2O)C(C)(OC(=O)NOCC=Cc2ccc(-c3cnccn3)cc2)CC(C)C(=O)C(C)C2NC(=O)OC12C (centres unmarked) [Compound 606]
	0.03 µg/mL (≈ 0.0352 µM)	0.25 µg/mL (≈ 0.293 µM)	0.25 µg/mL (≈ 0.293 µM)	CCC1OC(=O)C(C)C(=O)C(C)C(OC2OC(C)CC(N(C)C)C2O)C(C)(OC(=O)NOCC=Cc2ccc(-c3cccnn3)cc2)CC(C)C(=O)C(C)C2NC(=O)OC12C (centres unmarked) [Compound 607]
	0.06 µg/mL (≈ 0.0774 µM)	0.25 µg/mL (≈ 0.323 µM)	1 µg/mL (≈ 1.29 µM)	CC[C@H]1OC(=O)[C@H](C)C(=O)[C@H](C)[C@@H](O[C@@H]2O[C@H](C)C[C@H](N(C)C)[C@H]2O)[C@](C)(OC(=O)NOC/C=C/c2cccnc2)C[C@@H](C)C(=O)[C@H](C)[C@H]2NC(=O)O[C@@]21C [Compound 615]
	0.06 µg/mL (≈ 0.0704 µM)	0.25 µg/mL (≈ 0.293 µM)	0.5 µg/mL (≈ 0.587 µM)	CC[C@H]1OC(=O)[C@H](C)C(=O)[C@H](C)[C@@H](O[C@@H]2O[C@H](C)C[C@H](N(C)C)[C@H]2O)[C@](C)(OC(=O)NOC/C=C/c2cccc(-c3ncccn3)c2)C[C@@H](C)C(=O)[C@H](C)[C@H]2NC(=O)O[C@@]21C [Compound 616]
	0.03 µg/mL (≈ 0.0353 µM)	0.12 µg/mL (≈ 0.141 µM)	0.25 µg/mL (≈ 0.294 µM)	CC[C@H]1OC(=O)[C@H](C)C(=O)[C@H](C)[C@@H](O[C@@H]2O[C@H](C)C[C@H](N(C)C)[C@H]2O)[C@](C)(OC(=O)NOC/C=C/c2ccc(-c3ccccn3)cc2)C[C@@H](C)C(=O)[C@H](C)[C@H]2NC(=O)O[C@@]21C [Compound 617]
	0.03 µg/mL (≈ 0.0357 µM)	0.12 µg/mL (≈ 0.143 µM)	0.25 µg/mL (≈ 0.298 µM)	CC[C@H]1OC(=O)[C@H](C)C(=O)[C@H](C)[C@@H](O[C@@H]2O[C@H](C)C[C@H](N(C)C)[C@H]2O)[C@](C)(OC(=O)NOC/C=C/c2ccc(-n3cccn3)cc2)C[C@@H](C)C(=O)[C@H](C)[C@H]2NC(=O)O[C@@]21C [Compound 619]
	0.12 µg/mL (≈ 0.141 µM)	0.25 µg/mL (≈ 0.293 µM)	1 µg/mL (≈ 1.17 µM)	CC[C@H]1OC(=O)[C@H](C)C(=O)[C@H](C)[C@@H](O[C@@H]2O[C@H](C)C[C@H](N(C)C)[C@H]2O)[C@](C)(OC(=O)N(C)OCCc2ccc(-c3ncccn3)cc2)C[C@@H](C)C(=O)[C@H](C)[C@H]2NC(=O)O[C@@]21C [Compound 621]

SMILES	MIC (E: H. influenzae ATCC49247) [1]	MIC (D: S. pneumoniae ATCC49619) [2]	MIC (C: E. faecalis ATCC29212) [3]	MIC (B: S. aureus ATCC29213) [4]
CC[C@H]1OC(=O)[C@H](C)C(=O)[C@H](C)[C@@H](O[C@@H]2O[C@H](C)C[C@H](N(C)C)[C@H]2O)[C@](C)(OC(=O)NOC/C=C/c2cnc3ccccc3c2)C[C@@H](C)C(=O)[C@H](C)[C@H]2NC(=O)O[C@@]21C [Compound 620]		0.03 µg/mL (≈ 0.0364 µM)	0.12 µg/mL (≈ 0.145 µM)	0.5 µg/mL (≈ 0.606 µM)

Reference: patent publication US6825170B2, “6-O-acyl ketolide antibacterials” (Ortho-McNeil Pharmaceutical, Inc., priority 2001, dated 2004)
